# Assay: Deodorization evaluation, forced-preference panel test of acetic acid malodor on cotton balls
# Details: approx. 50 mg acetic acid on cotton ball in closed 32 oz jar; sprayed with 0.25 g, 0.5 g, 2.0 g and 5 g of approx. 0.8% by weight active in water; equilibrated 2 hrs; ten panelists; FIG. 1
# Description: Deodorization Evaluations. Forced Preference Tests.
# In the deodorization studies, two substances were tested for their ability to deodorize malodor: 1) Soyaethyl Morpholinium Ethosulfate (U.S. Pat. No. 4,851,214); and 2) Soyamidopropyl Ethylmorpholinium Ethosulfate (from this invention). These two products are Products 1 and 2, respectively, in FIG. 1. Both materials contain a quaternized morpholinium functionality within the deodorant molecule. All test formulations were approximately 0.8% by weight of active deodorizer/sequestrant in water.
# Both products were tested as follows: Approximately 50 milligrams of acetic acid were placed on cotton balls (approximately 0.63 g in weight). The cotton balls were placed in 32 oz plastic jars, one per jar, and the lids were screwed on. After equilibrating for 4 hours the cotton balls were sprayed with predetermined amounts (0.25 g, 0.5 g, 2.0 g and 5 g) of deodorizing spray formulations and placed back in closed containers where they equilibrated for 2 hrs. In forced-preference testing, ten panelists were asked to open each jar and rate each on a scale from 1 to 10 with 10 being the highest level of acetic acid detected. The results of those ratings appear in FIG. 1 where the ratings given for each test substance is graphed versus the weight in grams of deodorizing formulations that had been applied to each cotton ball. […]
row,Compound,"perceivable malodor (odor rating on a scale from 1 to 10, 10 being the highest level of acetic acid detected)"
1,"CCCCCCCC/C=C\CCCCCCCC[N+]1(CC)CCOCC1 [Product 1, Soyaethyl Morpholinium Ethosulfate]",reduced the perceivable malodor in a concentration-dependent fashion
2,Soyamidopropyl Ethylmorpholinium Ethosulfate [Product 2],reduced the perceivable malodor in a concentration-dependent fashion

# Reference: US12502344B2, “Deodorants comprising alkylamido and alkenylamido-morpholinium compositions” (Colonial Chemical, Inc., priority 2021, dated 2025)
